Reference: ChEMBL document CHEMBL5137082, “Discovery of a Novel Vascular Disrupting Agent Inhibiting Tubulin Polymerization and HDACs with Potent Antitumor Effects” (J Med Chem, 2022)
pIC50: −log10 of the molar value. Calls of active or inactive are those of the source. No cut-off for these calls is given here.

Experiments:
HepG2 [1] = assay: Induction of apoptosis in human HepG2 cells assessed as upregulation of Bax protein expression measured after 24 hrs by Western blot analysis; type: functional, cell-based; details: dose 7.5-30 nM, DDE = dose-dependent effect
Histone deacetylase 2 = Histone deacetylase 2 (Homo sapiens, UniProt Q92769); assay: Inhibition of HDAC2 in human HeLa cells using BOC-K(Ac)-AMC as substrate measured after 30 mins by fluorescence based microtiter plate reader assay; type: cell-based
Histone deacetylase 2, sequence (Q92769 whole entry): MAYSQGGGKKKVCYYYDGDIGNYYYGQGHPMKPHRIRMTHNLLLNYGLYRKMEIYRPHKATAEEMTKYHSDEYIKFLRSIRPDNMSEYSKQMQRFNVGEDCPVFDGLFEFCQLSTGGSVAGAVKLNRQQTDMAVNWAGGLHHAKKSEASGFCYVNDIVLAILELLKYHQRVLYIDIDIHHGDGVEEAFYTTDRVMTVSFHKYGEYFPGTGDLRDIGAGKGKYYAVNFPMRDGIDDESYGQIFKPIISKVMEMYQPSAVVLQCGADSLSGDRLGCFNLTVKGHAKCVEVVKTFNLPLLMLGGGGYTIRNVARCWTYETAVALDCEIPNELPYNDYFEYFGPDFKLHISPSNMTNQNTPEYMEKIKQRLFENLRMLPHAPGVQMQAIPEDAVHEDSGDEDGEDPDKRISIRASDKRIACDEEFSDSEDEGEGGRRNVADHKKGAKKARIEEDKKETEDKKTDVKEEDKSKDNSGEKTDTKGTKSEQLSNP

[2] = Toxicity in ICR mouse allografted with mouse H22 cells assessed as pathological changes in heart at 20 mg/kg, iv administered qd measured after 21 days by H and E staining based analysis; type: organism-based; details: in vivo, 504 h, time 21 day
PC-3 = assay: Induction of apoptosis in human PC-3 cells assessed as mitochondrial membrane potential loss by measuring increase in green fluorescence at 7.5 nM incubated for 48 hrs by JC1 staining based flow cytometry analysis (reference value: 6.50 +/- 0.17%); type: functional
HepG2 [3] = assay: Induction of apoptosis in human HepG2 cells assessed as late apoptotic cells at 7.5 nM incubated for 48 hrs by Annexin-V/PI-staining based flow cytometry (reference value: 2.53 +/- 0.34%); type: functional
Mus musculus = assay: In vivo inhibition of HDAC in ICR mouse allografted with mouse H22 cells assessed as upregulation of acetyl-histone H3 expression at 20 mg/kg, iv qd administered for 21 days measured after 24 hrs by Western blot analysis; type: functional, organism-based; details: time 21.0 day
HepG2 [4] = assay: Induction of apoptosis in human HepG2 cells assessed as necrotic cells at 15 nM incubated for 48 hrs by Annexin-V/PI-staining based flow cytometry (reference value: 1.43 +/- 0.26%); type: functional
HepG2 [5] = assay: Induction of cell cycle arrest in human HepG2 cells assessed as accumulation S phase at 15 nM incubated for 48 hrs by propidium iodide staining based flow cytometry analysis (reference value: 17.14 +/- 0.34%); type: functional
[6] = Metabolic stability in mouse plasma assessed as compound remaining at 40 uM measured after 2 hrs by LC-MS/MS analysis (reference value: 100%); type: ADME, cell-free

pIC50 (Histone deacetylase 2): 6.87 | Stability [6]: 30.7%
SMILES: COc1ccc(CNC(=O)c2cc(F)ccc2N2CCOCC2)cc1/C=C/C(=O)NO
Activity (HepG2 [1]): Dde | Activity [2]: Non-Toxic | Activity (PC-3): 23.22% | Activity (HepG2 [3]): 6.89% | inhibition (Mus musculus): Active | Activity (HepG2 [4]): 1.13% | Activity (HepG2 [5]): 23.06%
